Assay results from PubChem BioAssay (NCI).
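Briefly, cells in 96-well plates were exposed to five compound concentrations for 48 h, and endpoints were estimated by linear interpolation. TGI: total growth inhibition.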

Experiments:
Test in all cases: inhibition of tumour cell growth, NCI panel, 48 h
SF-268 CNS = tested on: SF-268 CNS
MCF7 breast = tested on: MCF7 breast
MALME-3M melanoma = tested on: MALME-3M melanoma
T-47D breast = tested on: T-47D breast
KM12 colon = tested on: KM12 colon
SK-MEL-28 melanoma = tested on: SK-MEL-28 melanoma
HCT-116 colon = tested on: HCT-116 colon
DU-145 prostate = tested on: DU-145 prostate
HOP-92 NSCLC = tested on: HOP-92 NSCLC
CAKI-1 renal = tested on: CAKI-1 renal
SNB-19 CNS = tested on: SNB-19 CNS
LOX IMVI melanoma = tested on: LOX IMVI melanoma
NCI-H226 lung = tested on: NCI-H226 lung
UACC-62 melanoma = tested on: UACC-62 melanoma
NCI/ADR-RES ovarian = tested on: NCI/ADR-RES ovarian
UACC-257 melanoma = tested on: UACC-257 melanoma
RXF 393 renal = tested on: RXF 393 renal
ACHN renal = tested on: ACHN renal
SF-295 CNS = tested on: SF-295 CNS
SK-MEL-2 melanoma = tested on: SK-MEL-2 melanoma
A498 renal = tested on: A498 renal
OVCAR-8 ovarian = tested on: OVCAR-8 ovarian
HS 578T breast = tested on: HS 578T breast
786-0 renal = tested on: 786-0 renal
PC-3 prostate = tested on: PC-3 prostate
NCI-H460 lung = tested on: NCI-H460 lung
TK-10 renal = tested on: TK-10 renal
K-562 leukemia = tested on: K-562 leukemia
RPMI-8226 leukemia = tested on: RPMI-8226 leukemia
M14 melanoma = tested on: M14 melanoma
HCT-15 colon = tested on: HCT-15 colon
MOLT-4 leukemia = tested on: MOLT-4 leukemia
SF-539 CNS = tested on: SF-539 CNS
MDA-MB-231 breast = tested on: MDA-MB-231 breast
OVCAR-4 ovarian = tested on: OVCAR-4 ovarian
U251 CNS = tested on: U251 CNS
OVCAR-3 ovarian = tested on: OVCAR-3 ovarian
SN12C renal = tested on: SN12C renal
SK-MEL-5 melanoma = tested on: SK-MEL-5 melanoma
UO-31 renal = tested on: UO-31 renal
IGROV1 ovarian = tested on: IGROV1 ovarian
SK-OV-3 ovarian = tested on: SK-OV-3 ovarian
EKVX NSCLC = tested on: EKVX NSCLC
SW-620 colon = tested on: SW-620 colon
OVCAR-5 ovarian = tested on: OVCAR-5 ovarian
HCC-2998 colon = tested on: HCC-2998 colon
NCI-H522 lung = tested on: NCI-H522 lung
MDA-MB-435 = tested on: MDA-MB-435
HOP-62 NSCLC = tested on: HOP-62 NSCLC
BT-549 breast = tested on: BT-549 breast

O=c1cc(-c2ccccc2)[nH]c2ccc(N3CCOCC3)cc12
TGI (SF-268 CNS): 15.8 µM | TGI (MCF7 breast): > 93.5 µM | TGI (MALME-3M melanoma): > 100 µM | TGI (T-47D breast): > 100 µM | TGI (KM12 colon): 0.446 µM | TGI (SK-MEL-28 melanoma): 44.7 µM | TGI (HCT-116 colon): > 100 µM | TGI (DU-145 prostate): > 32.9 µM | TGI (HOP-92 NSCLC): 44.1 µM | TGI (CAKI-1 renal): > 89.2 µM | TGI (SNB-19 CNS): > 87.5 µM | TGI (LOX IMVI melanoma): > 100 µM | TGI (NCI-H226 lung): 0.253 µM | TGI (UACC-62 melanoma): > 100 µM | TGI (NCI/ADR-RES ovarian): > 100 µM | TGI (UACC-257 melanoma): > 100 µM | TGI (RXF 393 renal): 46.5 µM | TGI (ACHN renal): > 91 µM | TGI (SF-295 CNS): 0.0773 µM | TGI (SK-MEL-2 melanoma): > 100 µM | TGI (A498 renal): 73.5 µM | TGI (OVCAR-8 ovarian): > 100 µM | TGI (HS 578T breast): > 100 µM | TGI (786-0 renal): 38.1 µM | TGI (PC-3 prostate): > 100 µM | TGI (NCI-H460 lung): > 100 µM | TGI (TK-10 renal): > 100 µM | TGI (K-562 leukemia): > 100 µM | TGI (RPMI-8226 leukemia): > 100 µM | TGI (M14 melanoma): > 79.2 µM | TGI (HCT-15 colon): > 100 µM | TGI (MOLT-4 leukemia): > 100 µM | TGI (SF-539 CNS): 0.615 µM | TGI (MDA-MB-231 breast): > 100 µM | TGI (OVCAR-4 ovarian): > 100 µM | TGI (U251 CNS): > 35.8 µM | TGI (OVCAR-3 ovarian): 39.2 µM | TGI (SN12C renal): > 95.3 µM | TGI (SK-MEL-5 melanoma): 14.3 µM | TGI (UO-31 renal): > 100 µM | TGI (IGROV1 ovarian): > 100 µM | TGI (SK-OV-3 ovarian): 22.4 µM | TGI (EKVX NSCLC): > 100 µM | TGI (SW-620 colon): > 100 µM | TGI (OVCAR-5 ovarian): > 100 µM | TGI (HCC-2998 colon): > 100 µM | TGI (NCI-H522 lung): 0.404 µM | TGI (MDA-MB-435): > 100 µM | TGI (HOP-62 NSCLC): 28.2 µM | TGI (BT-549 breast): > 100 µM
